Assay results from ChEMBL document CHEMBL5653615 (J Biol Chem, 2013).

Assays:
[1] = molecular target: T1, Mitogen-activated protein kinase kinase kinase 2 (Homo sapiens) (UniProt Q9Y2U5); experiment: Inhibition of human MEKK2 at 18.6 nM by HotSpot assay relative to control
T1 sequence (whole entry): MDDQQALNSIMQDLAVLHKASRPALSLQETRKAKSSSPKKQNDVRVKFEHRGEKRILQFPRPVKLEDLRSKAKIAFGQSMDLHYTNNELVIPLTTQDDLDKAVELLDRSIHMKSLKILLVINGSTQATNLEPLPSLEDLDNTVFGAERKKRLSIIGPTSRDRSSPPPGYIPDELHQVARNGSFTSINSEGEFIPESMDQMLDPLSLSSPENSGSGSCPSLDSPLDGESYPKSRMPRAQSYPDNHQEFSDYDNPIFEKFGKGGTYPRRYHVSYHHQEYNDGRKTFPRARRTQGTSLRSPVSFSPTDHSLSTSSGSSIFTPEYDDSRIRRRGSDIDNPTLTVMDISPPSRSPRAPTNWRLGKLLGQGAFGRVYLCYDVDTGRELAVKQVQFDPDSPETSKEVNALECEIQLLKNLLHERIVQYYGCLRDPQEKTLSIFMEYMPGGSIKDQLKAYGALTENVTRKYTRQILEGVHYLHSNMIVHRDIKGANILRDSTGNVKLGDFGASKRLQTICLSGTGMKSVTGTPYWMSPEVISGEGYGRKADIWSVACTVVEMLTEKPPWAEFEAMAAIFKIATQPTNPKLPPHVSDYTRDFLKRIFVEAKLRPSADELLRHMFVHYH

[2] = molecular target: Ribosomal protein S6 kinase alpha-4 (Homo sapiens) (UniProt O75676); experiment: Inhibition of human RPS6KA4 at 18.6 nM by HotSpot assay relative to control
Ribosomal protein S6 kinase alpha-4 (Homo sapiens), sequence (O75676 whole entry, looked up): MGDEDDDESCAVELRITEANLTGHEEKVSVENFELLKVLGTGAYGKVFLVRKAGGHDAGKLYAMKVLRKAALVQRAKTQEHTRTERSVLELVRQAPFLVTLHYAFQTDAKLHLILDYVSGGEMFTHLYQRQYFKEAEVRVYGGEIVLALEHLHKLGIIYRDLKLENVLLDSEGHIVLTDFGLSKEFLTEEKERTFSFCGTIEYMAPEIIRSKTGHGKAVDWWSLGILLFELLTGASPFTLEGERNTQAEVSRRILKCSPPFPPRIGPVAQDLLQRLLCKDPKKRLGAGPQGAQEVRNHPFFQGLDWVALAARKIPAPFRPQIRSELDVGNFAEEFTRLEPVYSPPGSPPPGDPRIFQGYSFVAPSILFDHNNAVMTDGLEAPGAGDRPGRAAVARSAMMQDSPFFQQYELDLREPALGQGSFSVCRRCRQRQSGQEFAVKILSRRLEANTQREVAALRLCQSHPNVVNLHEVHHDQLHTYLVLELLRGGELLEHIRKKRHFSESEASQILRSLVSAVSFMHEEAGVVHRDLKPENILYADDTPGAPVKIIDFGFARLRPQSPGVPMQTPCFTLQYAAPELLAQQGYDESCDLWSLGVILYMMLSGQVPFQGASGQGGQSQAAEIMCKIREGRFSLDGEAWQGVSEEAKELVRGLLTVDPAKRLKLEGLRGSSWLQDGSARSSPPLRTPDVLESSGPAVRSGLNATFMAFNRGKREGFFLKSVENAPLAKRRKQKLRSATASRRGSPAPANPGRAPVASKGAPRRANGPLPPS

[3] = molecular target: Ephrin type-A receptor 5 (Homo sapiens) (UniProt P54756); experiment: Inhibition of human EPHA5 at 18.6 nM by HotSpot assay relative to control
[4] = molecular target: Serine/threonine-protein kinase PAK 5 (Homo sapiens) (UniProt Q9P286); experiment: Inhibition of human PAK5 at 18.6 nM by HotSpot assay relative to control
[5] = molecular target: Serine/threonine-protein kinase MARK2 (Homo sapiens) (UniProt Q7KZI7); experiment: Inhibition of human PAR-1Ba at 18.6 nM by HotSpot assay relative to control
[6] = molecular target: T2, Activin receptor type-1 (Homo sapiens) (UniProt Q04771); experiment: Inhibition of human ALK2 at 18.6 nM by HotSpot assay relative to control
T2 sequence (whole entry): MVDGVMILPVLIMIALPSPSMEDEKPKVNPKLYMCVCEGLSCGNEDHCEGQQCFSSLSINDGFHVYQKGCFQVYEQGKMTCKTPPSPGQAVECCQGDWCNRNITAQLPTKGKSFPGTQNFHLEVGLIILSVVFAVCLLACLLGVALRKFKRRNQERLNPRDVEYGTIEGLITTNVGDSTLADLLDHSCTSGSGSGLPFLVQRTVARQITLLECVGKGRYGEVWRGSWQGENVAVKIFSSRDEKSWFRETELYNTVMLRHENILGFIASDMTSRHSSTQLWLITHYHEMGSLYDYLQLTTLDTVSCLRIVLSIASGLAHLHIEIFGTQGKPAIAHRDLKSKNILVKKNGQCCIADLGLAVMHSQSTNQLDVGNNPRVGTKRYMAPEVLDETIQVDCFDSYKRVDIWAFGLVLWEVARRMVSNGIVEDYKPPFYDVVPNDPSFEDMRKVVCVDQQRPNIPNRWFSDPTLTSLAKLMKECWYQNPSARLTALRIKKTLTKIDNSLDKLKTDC

[7] = molecular target: Protein kinase C delta type (Homo sapiens) (UniProt Q05655); experiment: Inhibition of human PKCd at 18.6 nM by HotSpot assay relative to control
Protein kinase C delta type (Homo sapiens), sequence (Q05655 whole entry, looked up): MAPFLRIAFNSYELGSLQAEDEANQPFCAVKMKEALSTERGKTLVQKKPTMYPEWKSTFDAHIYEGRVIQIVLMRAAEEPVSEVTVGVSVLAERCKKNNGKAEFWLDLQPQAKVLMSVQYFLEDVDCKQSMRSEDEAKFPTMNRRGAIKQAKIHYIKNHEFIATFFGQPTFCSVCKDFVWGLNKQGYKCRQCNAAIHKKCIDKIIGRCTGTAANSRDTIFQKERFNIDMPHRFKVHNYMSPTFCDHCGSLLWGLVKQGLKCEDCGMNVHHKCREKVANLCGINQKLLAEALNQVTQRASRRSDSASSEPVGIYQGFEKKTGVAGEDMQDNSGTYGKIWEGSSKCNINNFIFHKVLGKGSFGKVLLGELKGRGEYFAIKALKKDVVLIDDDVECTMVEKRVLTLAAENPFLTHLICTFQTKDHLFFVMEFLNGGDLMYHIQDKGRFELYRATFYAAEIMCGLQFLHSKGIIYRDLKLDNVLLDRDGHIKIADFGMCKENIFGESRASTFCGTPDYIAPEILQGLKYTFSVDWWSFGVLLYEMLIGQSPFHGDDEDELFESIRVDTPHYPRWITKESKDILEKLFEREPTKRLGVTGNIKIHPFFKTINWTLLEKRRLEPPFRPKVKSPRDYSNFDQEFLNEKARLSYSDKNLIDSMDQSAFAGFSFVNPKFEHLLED

[8] = molecular target: Interleukin-1 receptor-associated kinase 1 (Homo sapiens) (UniProt P51617); experiment: Inhibition of human IRAK1 at 18.6 nM by HotSpot assay relative to control
Interleukin-1 receptor-associated kinase 1 (Homo sapiens), sequence (P51617 whole entry, looked up): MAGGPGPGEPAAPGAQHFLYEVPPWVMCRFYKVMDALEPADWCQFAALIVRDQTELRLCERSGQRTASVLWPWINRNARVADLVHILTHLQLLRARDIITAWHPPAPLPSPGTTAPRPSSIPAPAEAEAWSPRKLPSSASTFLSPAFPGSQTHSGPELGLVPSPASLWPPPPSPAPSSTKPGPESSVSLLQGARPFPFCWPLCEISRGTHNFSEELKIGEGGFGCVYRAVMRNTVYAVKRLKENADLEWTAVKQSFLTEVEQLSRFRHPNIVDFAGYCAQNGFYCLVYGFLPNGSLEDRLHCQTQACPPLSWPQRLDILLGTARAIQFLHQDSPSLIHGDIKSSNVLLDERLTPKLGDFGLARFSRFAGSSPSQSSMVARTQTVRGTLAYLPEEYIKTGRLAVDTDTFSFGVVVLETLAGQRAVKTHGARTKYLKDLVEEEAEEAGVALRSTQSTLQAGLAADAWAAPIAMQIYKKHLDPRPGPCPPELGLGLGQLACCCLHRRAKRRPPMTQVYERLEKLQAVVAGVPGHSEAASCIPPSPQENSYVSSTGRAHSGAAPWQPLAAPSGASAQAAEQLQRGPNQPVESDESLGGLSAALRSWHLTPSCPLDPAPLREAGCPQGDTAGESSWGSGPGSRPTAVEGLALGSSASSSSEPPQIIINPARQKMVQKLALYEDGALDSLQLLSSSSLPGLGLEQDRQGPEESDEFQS

[9] = molecular target: Serine/threonine-protein kinase pim-1 (Homo sapiens) (UniProt P11309); experiment: Inhibition of human PIM1 at 1.82 nM by HotSpot assay relative to control
Serine/threonine-protein kinase pim-1 (Homo sapiens), sequence (P11309 whole entry, looked up): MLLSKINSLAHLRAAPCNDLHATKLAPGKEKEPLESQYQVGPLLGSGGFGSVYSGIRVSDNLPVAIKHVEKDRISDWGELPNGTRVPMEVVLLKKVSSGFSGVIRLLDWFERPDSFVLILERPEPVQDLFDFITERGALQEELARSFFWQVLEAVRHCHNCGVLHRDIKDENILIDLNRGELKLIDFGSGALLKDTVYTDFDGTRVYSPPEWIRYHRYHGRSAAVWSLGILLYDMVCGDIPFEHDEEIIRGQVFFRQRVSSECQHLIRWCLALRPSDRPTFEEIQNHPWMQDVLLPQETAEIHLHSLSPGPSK

[10] = molecular target: Homeodomain-interacting protein kinase 3 (Homo sapiens) (UniProt Q9H422); experiment: Inhibition of human HIPK3 at 1.82 nM by HotSpot assay relative to control
Homeodomain-interacting protein kinase 3 (Homo sapiens), sequence (Q9H422 whole entry, looked up): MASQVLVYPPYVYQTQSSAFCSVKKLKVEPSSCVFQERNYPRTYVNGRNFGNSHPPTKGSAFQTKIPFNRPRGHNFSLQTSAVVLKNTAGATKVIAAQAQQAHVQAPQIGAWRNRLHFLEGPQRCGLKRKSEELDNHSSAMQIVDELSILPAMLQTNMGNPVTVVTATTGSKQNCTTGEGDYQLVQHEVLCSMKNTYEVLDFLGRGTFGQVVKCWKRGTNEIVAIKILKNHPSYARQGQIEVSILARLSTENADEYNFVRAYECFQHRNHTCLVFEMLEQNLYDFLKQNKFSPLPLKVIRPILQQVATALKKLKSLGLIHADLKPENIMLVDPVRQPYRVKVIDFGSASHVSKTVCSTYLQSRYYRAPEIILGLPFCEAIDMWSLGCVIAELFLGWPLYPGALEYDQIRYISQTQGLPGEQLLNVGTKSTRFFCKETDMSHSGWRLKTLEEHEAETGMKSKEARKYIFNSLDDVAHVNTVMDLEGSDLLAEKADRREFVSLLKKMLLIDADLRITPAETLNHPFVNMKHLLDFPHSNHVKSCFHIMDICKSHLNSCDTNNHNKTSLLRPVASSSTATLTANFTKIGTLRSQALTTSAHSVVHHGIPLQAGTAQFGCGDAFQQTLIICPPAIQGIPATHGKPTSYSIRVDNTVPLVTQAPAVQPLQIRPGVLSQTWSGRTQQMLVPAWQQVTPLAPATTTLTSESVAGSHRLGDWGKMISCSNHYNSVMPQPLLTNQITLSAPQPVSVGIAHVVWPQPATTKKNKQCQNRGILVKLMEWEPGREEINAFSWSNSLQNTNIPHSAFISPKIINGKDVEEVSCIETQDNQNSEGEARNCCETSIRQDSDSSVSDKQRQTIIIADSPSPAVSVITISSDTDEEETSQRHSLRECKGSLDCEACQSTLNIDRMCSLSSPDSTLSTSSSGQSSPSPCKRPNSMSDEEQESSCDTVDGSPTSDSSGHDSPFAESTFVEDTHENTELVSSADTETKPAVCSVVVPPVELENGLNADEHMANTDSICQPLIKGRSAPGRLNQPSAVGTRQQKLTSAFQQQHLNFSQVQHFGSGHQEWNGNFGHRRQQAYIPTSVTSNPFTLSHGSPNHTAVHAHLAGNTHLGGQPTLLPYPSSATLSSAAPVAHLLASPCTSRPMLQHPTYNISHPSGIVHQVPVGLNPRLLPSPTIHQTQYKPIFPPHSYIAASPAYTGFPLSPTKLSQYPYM

[11] = molecular target: T3, Dual specificity tyrosine-phosphorylation-regulated kinase 4 (Homo sapiens) (UniProt Q9NR20); experiment: Inhibition of human DYRK4 at 1.82 nM by HotSpot assay relative to control
T3 sequence (whole entry): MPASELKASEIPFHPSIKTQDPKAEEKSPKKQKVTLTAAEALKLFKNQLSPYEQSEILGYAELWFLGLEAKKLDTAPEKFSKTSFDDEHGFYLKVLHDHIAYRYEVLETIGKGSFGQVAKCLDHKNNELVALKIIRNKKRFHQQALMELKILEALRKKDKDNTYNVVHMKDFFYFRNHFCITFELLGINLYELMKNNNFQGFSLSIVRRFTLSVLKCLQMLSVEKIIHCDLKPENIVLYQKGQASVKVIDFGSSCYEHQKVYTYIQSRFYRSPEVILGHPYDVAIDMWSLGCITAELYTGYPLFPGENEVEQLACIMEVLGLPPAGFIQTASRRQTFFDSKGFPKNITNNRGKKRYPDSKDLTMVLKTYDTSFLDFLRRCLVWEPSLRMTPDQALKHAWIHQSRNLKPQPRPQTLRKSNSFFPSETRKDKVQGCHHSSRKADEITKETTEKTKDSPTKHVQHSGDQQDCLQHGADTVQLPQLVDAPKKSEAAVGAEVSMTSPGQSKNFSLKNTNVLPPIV

[12] = molecular target: T4, Serine/threonine-protein kinase NLK (Homo sapiens) (UniProt Q9UBE8); experiment: Inhibition of human NLK at 1.82 nM by HotSpot assay relative to control
T4 sequence (whole entry): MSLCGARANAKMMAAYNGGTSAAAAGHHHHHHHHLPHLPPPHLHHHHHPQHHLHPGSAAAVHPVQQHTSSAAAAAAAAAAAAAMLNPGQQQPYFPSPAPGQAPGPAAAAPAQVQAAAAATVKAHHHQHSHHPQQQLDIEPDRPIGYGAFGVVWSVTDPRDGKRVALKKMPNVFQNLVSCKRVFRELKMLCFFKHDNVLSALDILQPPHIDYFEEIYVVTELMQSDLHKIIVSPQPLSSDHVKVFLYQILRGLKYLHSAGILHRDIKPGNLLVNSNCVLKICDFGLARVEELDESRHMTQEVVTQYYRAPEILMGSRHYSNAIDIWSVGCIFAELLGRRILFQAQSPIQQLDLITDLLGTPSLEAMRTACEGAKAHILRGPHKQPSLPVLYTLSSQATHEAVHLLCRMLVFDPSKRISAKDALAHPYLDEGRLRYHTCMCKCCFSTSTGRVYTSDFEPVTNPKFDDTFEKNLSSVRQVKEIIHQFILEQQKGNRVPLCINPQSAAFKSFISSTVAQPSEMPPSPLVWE

[13] = molecular target: BDNF/NT-3 growth factors receptor (Homo sapiens) (UniProt Q16620); experiment: Inhibition of human TRKB at 1.82 nM by HotSpot assay relative to control
BDNF/NT-3 growth factors receptor (Homo sapiens), sequence (Q16620 32-822 limits assumed): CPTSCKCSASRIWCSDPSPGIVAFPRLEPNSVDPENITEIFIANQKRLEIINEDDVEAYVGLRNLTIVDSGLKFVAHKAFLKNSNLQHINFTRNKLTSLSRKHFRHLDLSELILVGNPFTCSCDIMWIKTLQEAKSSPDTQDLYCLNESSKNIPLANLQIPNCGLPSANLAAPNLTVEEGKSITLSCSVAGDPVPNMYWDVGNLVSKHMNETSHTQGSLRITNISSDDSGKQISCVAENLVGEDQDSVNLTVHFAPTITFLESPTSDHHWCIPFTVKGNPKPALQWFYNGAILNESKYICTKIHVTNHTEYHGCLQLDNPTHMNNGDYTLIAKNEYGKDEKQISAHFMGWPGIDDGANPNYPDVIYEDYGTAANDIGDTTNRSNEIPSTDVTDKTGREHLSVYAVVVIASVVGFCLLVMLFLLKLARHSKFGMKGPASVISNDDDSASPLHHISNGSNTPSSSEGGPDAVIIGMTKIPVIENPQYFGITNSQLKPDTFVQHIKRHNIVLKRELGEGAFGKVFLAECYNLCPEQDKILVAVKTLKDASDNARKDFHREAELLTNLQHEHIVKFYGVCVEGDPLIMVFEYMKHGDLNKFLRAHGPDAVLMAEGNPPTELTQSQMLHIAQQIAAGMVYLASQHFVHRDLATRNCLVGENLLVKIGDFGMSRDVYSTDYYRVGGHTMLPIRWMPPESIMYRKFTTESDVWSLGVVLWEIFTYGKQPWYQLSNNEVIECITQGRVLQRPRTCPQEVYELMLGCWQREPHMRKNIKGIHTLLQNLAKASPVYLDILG

inhibition [1] [%]	inhibition [2] [%]	inhibition [3] [%]	inhibition [4] [%]	inhibition [5] [%]	inhibition [6] [%]	inhibition [7] [%]	inhibition [8] [%]	inhibition [9] [%]	inhibition [10] [%]	inhibition [11] [%]	inhibition [12] [%]	inhibition [13] [%]	Structure (SMILES)
-2.2	-2.53	0.67	-1.6	-3.78	1.44	-2	-8.8						C[C@]1(O)C[C@@H](c2nc(-c3ccc4ccc(-c5ccccc5)nc4c3)c3c(N)nccn32)C1
								-5.96	-3.9	-0.4	2.48	69.6	C[C@@]1(C(=O)Nc2ccc(F)nc2)CCCN1c1nc(Nc2cc(C3CC3)n[nH]2)c2cccn2n1
